Assays:
Assay in all cases: relative viability (nuclei count vs DMSO), 5 days (fraction); higher = more cells survive
[1] = test system: NCI-H441
Summary of the method: (§1)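 Five library-drug doses in √10 steps were combined with a fixed anchor-drug dose, or a single drug was given alone, by pin tool to lung cancer cell lines in 1536-well plates the day after seeding. Nuclei were stained and counted after 5 days. Relative viability is the nuclei count in treated wells over that in vehicle wells, taken as the median of duplicate plates.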

[2] = test system: PC-3 [JPC-3]
Summary of the method: as §1

[3] = test system: LK-2
Summary of the method: as §1

[4] = test system: EKVX
Summary of the method: as §1

[5] = test system: NCI-H23
Summary of the method: as §1

[6] = test system: NCI-H596
Summary of the method: as §1

[7] = test system: NCI-H1975
Summary of the method: as §1

[8] = test system: ChaGo-K-1
Summary of the method: as §1

[9] = test system: COR-L 105
Summary of the method: as §1

[10] = test system: HCC-366
Summary of the method: as §1

[11] = test system: LOU-NH91
Summary of the method: as §1

[12] = test system: NCI-H2170
Summary of the method: as §1

[13] = test system: A-427
Summary of the method: as §1

[14] = test system: EMC-BAC-2
Summary of the method: as §1

[15] = test system: NCI-H1734
Summary of the method: as §1

[16] = test system: NCI-H520
Summary of the method: as §1

[17] = test system: NCI-H1755
Summary of the method: as §1

[18] = test system: NCI-H1666
Summary of the method: as §1

[19] = test system: SK-MES-1
Summary of the method: as §1

[20] = test system: NCI-H1563
Summary of the method: as §1

[21] = test system: H3255
Summary of the method: as §1

For `COc1nc(C)cnc1NS(=O)(=O)c1cccnc1-c1ccc(-c2nnco2)cc1` [Zibotentan] + C[C@@H](Oc1cc(-c2cnn(C3CCNCC3)c2)cnc1N)c1c(Cl)ccc(F)c1Cl [Crizotinib] (partner 1 µM), the relative viability ([1]; first compound 0.08 µM) was 0.772, the relative viability ([1]; first compound 0.253 µM) was 0.599 and the relative viability ([1]; first compound 0.8 µM) was 0.982. The relative viability ([1]; first compound 2.53 µM) was 0.898, the relative viability ([2]; first compound 0.08 µM) was 0.951 and the relative viability ([2]; first compound 0.253 µM) was 0.967. The relative viability ([2]; first compound 0.8 µM) was 0.955, the relative viability ([2]; first compound 2.53 µM) was 0.966 and the relative viability ([3]; first compound 0.08 µM) was 0.259. For the same compound, the relative viability ([3]; first compound 0.253 µM) was 0.237, the relative viability ([3]; first compound 0.8 µM) was 0.253 and the relative viability ([3]; first compound 2.53 µM) was 0.241. The relative viability ([4]; first compound 0.08 µM) was 0.875, the relative viability ([4]; first compound 0.253 µM) was 0.733 and the relative viability ([4]; first compound 0.8 µM) was 0.848. The relative viability ([4]; first compound 2.53 µM) was 1.03, the relative viability ([5]; first compound 0.08 µM) was 0.54 and the relative viability ([5]; first compound 0.253 µM) was 0.552. It also gave a relative viability ([5]; first compound 0.8 µM) of 0.565, a relative viability ([5]; first compound 2.53 µM) of 0.593 and a relative viability ([6]; first compound 0.08 µM) of 0.942. It also gave a relative viability ([6]; first compound 0.253 µM) of 0.898, a relative viability ([6]; first compound 0.8 µM) of 0.989 and a relative viability ([6]; first compound 2.53 µM) of 0.957. The relative viability ([7]; first compound 0.08 µM) was 1.04, the relative viability ([7]; first compound 0.253 µM) was 0.871 and the relative viability ([7]; first compound 0.8 µM) was 0.837. The relative viability ([7]; first compound 2.53 µM) was 0.967, the relative viability ([8]; first compound 0.08 µM) was 1.33 and the relative viability ([8]; first compound 0.8 µM) was 1.09. The relative viability ([8]; first compound 2.53 µM) was 1.21, the relative viability ([9]; first compound 0.08 µM) was 0.826 and the relative viability ([9]; first compound 0.253 µM) was 0.665. For the same compound, the relative viability ([9]; first compound 0.8 µM) was 0.901, the relative viability ([9]; first compound 2.53 µM) was 1.07 and the relative viability ([10]; first compound 0.08 µM) was 0.774. The relative viability ([10]; first compound 0.253 µM) was 0.572, the relative viability ([10]; first compound 0.8 µM) was 0.475 and the relative viability ([10]; first compound 2.53 µM) was 0.499. For the same compound, the relative viability ([11]; first compound 0.08 µM) was 0.742, the relative viability ([11]; first compound 0.253 µM) was 0.717 and the relative viability ([11]; first compound 0.8 µM) was 0.758. It also gave a relative viability ([11]; first compound 2.53 µM) of 0.729, a relative viability ([12]; first compound 0.08 µM) of 1.29 and a relative viability ([12]; first compound 0.253 µM) of 1.15. It also gave a relative viability ([12]; first compound 0.8 µM) of 1.2, a relative viability ([12]; first compound 2.53 µM) of 1.2 and a relative viability ([13]; first compound 0.08 µM) of 0.858. It also gave a relative viability ([13]; first compound 0.253 µM) of 0.91, a relative viability ([13]; first compound 0.8 µM) of 0.904 and a relative viability ([13]; first compound 2.53 µM) of 0.84. It also gave a relative viability ([14]; first compound 0.08 µM) of 0.843, a relative viability ([14]; first compound 0.253 µM) of 0.751 and a relative viability ([14]; first compound 0.8 µM) of 0.778. For the same compound, the relative viability ([14]; first compound 2.53 µM) was 0.754, the relative viability ([15]; first compound 0.08 µM) was 0.808 and the relative viability ([15]; first compound 0.253 µM) was 0.699. The relative viability ([15]; first compound 0.8 µM) was 0.724, the relative viability ([15]; first compound 2.53 µM) was 0.724 and the relative viability ([16]; first compound 0.08 µM) was 0.857. For the same compound, the relative viability ([16]; first compound 0.253 µM) was 0.747, the relative viability ([16]; first compound 0.8 µM) was 0.798 and the relative viability ([16]; first compound 2.53 µM) was 0.893. It also gave a relative viability ([17]; first compound 0.08 µM) of 0.891, a relative viability ([17]; first compound 0.253 µM) of 0.887 and a relative viability ([17]; first compound 0.8 µM) of 0.826. It also gave a relative viability ([17]; first compound 2.53 µM) of 0.873, a relative viability ([18]; first compound 0.08 µM) of 1.01 and a relative viability ([18]; first compound 0.253 µM) of 0.856. It also gave a relative viability ([18]; first compound 0.8 µM) of 1.15, a relative viability ([18]; first compound 2.53 µM) of 0.996 and a relative viability ([19]; first compound 0.08 µM) of 1.12. The relative viability ([19]; first compound 0.253 µM) was 1.02, the relative viability ([19]; first compound 0.8 µM) was 0.969 and the relative viability ([19]; first compound 2.53 µM) was 0.932. For the same compound, the relative viability ([20]; first compound 0.08 µM) was 0.821, the relative viability ([20]; first compound 0.253 µM) was 0.512 and the relative viability ([20]; first compound 0.8 µM) was 0.874. It also gave a relative viability ([20]; first compound 2.53 µM) of 0.895, a relative viability ([21]; first compound 0.08 µM) of 0.846 and a relative viability ([21]; first compound 0.253 µM) of 0.841. For the same compound, the relative viability ([21]; first compound 0.8 µM) was 0.975 and the relative viability ([21]; first compound 2.53 µM) was 0.963.

Source: the supplement of paper PMC10307832
